pIC50: −log10 of the molar value. “And” between values parts separate entries of the source, which are not always exact repeats. Equal entries are not always repeated.
Tested on: 677734-321-R-J1-PDC complex spheroid viability
Experiment: Anticancer human tumor 677734-321-R-J1-PDC patient-derived soft tissue sarcoma cell line growth inhibition [POLQ]
Conditions: for viability, T/C: stronger effect = lower value; for pIC50: curve of compound
Method: Multicellular complex tumor spheroid response to Polymerase (POL) inhibitors (novobiocin, ART-558, RP6685) in combination with a variety of drugs and investigational agents in selected tumor cell lines
The POL inhibitors (novobiocin, ART-558, and RP6685) were evaluated both individually and in combination with standard of care and investigational anticancer small molecules within a complex spheroid model of solid tumors. . Complex spheroids include a stromal component modeled by human endothelial cells (HUVEC) and fibroblasts modeled by human mesenchymal stem cells (MSCs). The concentration ranges selected for each drug and investigational agent were based upon clinically achievable concentrations if the clinical Cmax of the agent was known.
Compounds. The drugs and investigational agents: novobiocin (NSC847541), ART-558 (NSC835418), RP-6685 (NSC848927), peposertib (NSC802822), ceralasertib (NSC780249), elimusertib (NSC800525), camonsertib (NSC841442), AZD-1390 (NSC803789), olaparib (NSC753686), talazoparib (NSC767125), rucaparib (NSC756644), sotorasib (NSC818433), MRTX-1133 (NSC836407), SN-38 (NSC673596), topotecan (NSC609699), epotoside (NSC141540), doxorubicin (NSC123127), gemcitabine (NSC613327), 5-fluorouracil (NSC19893), paclitaxel (NSC125973), vemurafenib (NSC761431), MSA-2 (NSC828583), SN-011 (NSC837082), adavosertib (NSC754352), prexasertib (NSC758257), carboplatin (NSC241240) and oxaliplatin (NSC266046), were obtained from the National Cancer Institute (NCI) Developmental Therapeutics Program Chemical Repository (21). The FDA-approved anticancer drug set is available from the Developmental Therapeutics Program at https://dtp.cancer.gov/organization/dscb/obtaining/. […] The stock solutions were prepared in dimethyl sulfoxide (DMSO, Sigma-Aldrich, St. Louis, MO, cat. D2650), except for the platinum compounds which were prepared in saline (Quality Biological, Gaithersburg, MD, cat. 114-055-101), at 800-fold the tested concentration and stored at -70 degrees C prior to their use. All drugs and investigational agents were tested over a range starting from a high concentration at or near the clinical Cmax and decreasing in half-log increments. If the clinical Cmax for an agent had not been determined, the highest concentration tested was 10 microM, except for SN-38, which was tested at a high concentration of 1 microM.
Cell Culture. All cells were maintained in an incubator at 37 degrees C and 5% CO2 with 95% humidity. The PDC lines were cultured according to standard operating procedures established by the NCI PDMR (https://pdmr.cancer.gov). Table 3 of the manuscript, lists the cell lines along with the number of the three cell types plated to form the mct-spheroids and media for tumor cell growth. After thawing, all PDC lines, except 997537-175-T-J1-PDC and 415267-285-R-J2-PDC, were cultured in Matrigel-coated flasks prepared with a working solution of 1X Ham's F-12 nutrient mix, without supplementation (Thermo Fisher Scientific, cat. 11765054), 100 U/mL penicillin-streptomycin (Thermo Fisher Scientific, cat. 15140122), and 2.5% Matrigel (Corning Inc., Corning, NY, cat. 354248) for the first three passages. The two PDC lines 997537-175-T-J1-PDC and 415267-285-R-J2-PDC were cultured on uncoated flasks. The 857933-349-R-J2-PDC line was cultured in 6C/Colon 1B media containing advanced DMEM/F-12 (Thermo Fisher Scientific, cat. 12634028), 10 mM HEPES (Thermo Fisher Scientific, cat. 15630080), 1X GlutaMAX supplement (Thermo Fisher Scientific, cat. 35050061), 0.1 mg/mL primocin (InvivoGen, San Diego, CA, cat. ant-pm-2), 10% defined fetal bovine serum, heat inactivated (HyClone Laboratories Inc., Logan, UT, cat. SH30070.03HI), 50% L-WRN conditioned media (ATCC, cat. CRL-3276), 1.25 mM N-Acetyl-L-cysteine (Sigma-Aldrich, cat. A9165), 10 mM nicotinamide (Sigma-Aldrich, cat. N0636), 1X B-27 supplement (Thermo Fisher Scientific, cat. 17504044), 1X N-2 supplement (Thermo Fisher Scientific, cat. […]
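Further: spheroids exposed to compounds for one week.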
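Wherever viability, T/C is given: 100% = vehicle DMSO treated spheroids.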

| Compound | viability, T/C (compound 0.0316 µM) | viability, T/C (compound 0.1 µM) | viability, T/C (compound 0.316 µM) | viability, T/C (compound 1 µM) | viability, T/C (compound 3.16 µM) | viability, T/C (compound 10 µM) | pIC50 | viability, T/C (compound 0.00316 µM) | viability, T/C (compound 0.01 µM) | viability, T/C (compound 0.00949 µM) | viability, T/C (compound 0.03 µM) | viability, T/C (compound 0.0949 µM) | viability, T/C (compound 0.3 µM) | viability, T/C (compound 0.949 µM) | viability, T/C (compound 3 µM) | viability, T/C (compound 0.000316 µM) | viability, T/C (compound 0.001 µM) |
| --- | --- | --- | --- | --- | --- | --- | --- | --- | --- | --- | --- | --- | --- | --- | --- | --- | --- |
| C#Cc1c(F)ccc2cc(O)cc(-c3ncc4c(N5CC6CCC(C5)N6)nc(OCC56CCCN5CC(F)C6)nc4c3F)c12 (centres undefined) | 109% and 110% and 105% | 105% and 104% and 101% | 99.2% and 115% and 96.7% | 105% and 96.8% and 101% | 107% and 113% and 97.8% | 102% (2×) and 80.7% | < 5.00 |  |  |  |  |  |  |  |  |  |  |
| C=CC(=O)N1CCN(c2nc(=O)n(-c3c(C)ccnc3C(C)C)c3nc(-c4c(O)cccc4F)c(F)cc23)C(C)C1 (centres undefined) | 100% and 109% and 106% | 95.8% and 94.2% and 95.4% | 117% and 96.4% and 105% | 101% and 104% and 95.6% | 96.5% and 93.2% and 101% | 89% and 64% and 94.1% | < 5.00 |  |  |  |  |  |  |  |  |  |  |
| C=CCn1c(=O)c2cnc(Nc3ccc(N4CCN(C)CC4)cc3)nc2n1-c1cccc(C(C)(C)O)n1 | 105% and 97.8% and 107% | 103% and 90.1% and 87.8% | 103% and 74.6% and 85.4% | 64.8% and 36% and 39% |  |  | < 6.00 and 6.18 and 6.12 | 109% and 100% and 106% | 115% and 89.1% and 99% |  |  |  |  |  |  |  |  |
| CC(=O)O[C@H]1C(=O)[C@@]2(C)[C@H]([C@H](OC(=O)c3ccccc3)[C@]3(O)C[C@H](OC(=O)[C@H](O)[C@@H](NC(=O)c4ccccc4)c4ccccc4)C(C)=C1C3(C)C)[C@]1(OC(C)=O)CO[C@@H]1C[C@@H]2O |  |  |  |  |  |  | > 8.02 |  |  | 22% and 35.2% and 37.8% | 13.4% and 15.2% and 19.2% | 12.7% and 15.9% and 17.6% | 11.9% and 12.5% and 14.8% | 14.2% and 12.4% and 14.5% | 13.1% and 16.4% (2×) |  |  |
| CC(C)n1c(=O)n(C)c2cnc3cc(F)c(-c4ccc(OCCCN5CCCCC5)nc4)cc3c21 | 104% and 96.1% and 15.7% | 97.3% and 81.5% and 19.8% | 111% and 83.6% and 12.2% | 99.2% and 101% and 14.6% | 101% and 85.8% and 17.6% | 91% and 102% and 18.9% |  |  |  |  |  |  |  |  |  |  |  |
| CC1COCCN1c1cc(-c2ccnn2C)c2ccnc(-c3ccn[nH]3)c2n1 (centres undefined) | 91.4% and 85.5% and 69.4% | 60.5% and 56.2% and 22.1% |  | 24.4% and 21.4% and 10.8% | 19.7% and 6.39% and 9.44% | 18.5% and 17.1% and 9.19% | 6.79 and 6.91 and 7.30 |  |  |  |  |  |  |  |  |  |  |
| CC1COCCN1c1cc(C2(O)CC3CCC(C2)O3)c2cnn(-c3ccn[nH]3)c2n1 (centres undefined) | 81.7% and 83.6% and 51% | 51.1% and 44.5% and 17.5% | 25.6% and 22.2% and 9.65% | 20.1% and 15.7% and 9.53% | 17.1% and 14.3% and 7.61% | 17.9% and 14.2% and 4.79% | 6.98 and 7.07 and 7.49 |  |  |  |  |  |  |  |  |  |  |
| CC1COCCN1c1cc(C2(S(C)(=N)=O)CC2)nc(-c2ccnc3[nH]ccc23)n1 (centres undefined) | 109% and 103% and 113% | 97.4% and 99.3% and 104% | 92% and 80.2% and 107% | 86.7% and 51.1% and 86.6% | 60.8% and 28.3% and 55.8% | 21.6% and 9.59% and 22.4% | 5.36 and 5.95 and 5.42 |  |  |  |  |  |  |  |  |  |  |
| CCCS(=O)(=O)Nc1ccc(F)c(C(=O)c2c[nH]c3ncc(-c4ccc(Cl)cc4)cc23)c1F | 109% and 98.3% and 104% | 98% (2×) and 103% | 90.9% and 101% and 108% | 97.4% and 115% and 111% | 71.8% and 98.3% and 112% | 4.28% and 6.33% and 14.5% | 5.34 and 5.24 and 5.19 |  |  |  |  |  |  |  |  |  |  |
| CC[C@@]1(O)C(=O)OCc2c1cc1n(c2=O)Cc2cc3c(CN(C)C)c(O)ccc3nc2-1 | 46.4% and 25.9% and 36.8% | 18% and 13.8% and 15% |  |  |  |  | 7.53 and 7.71 and 7.61 | 105% and 100% and 109% | 98.2% and 82.6% and 99.5% |  |  |  |  |  |  | 104% (2×) and 105% | 111% and 90.9% and 101% |
| CCc1c2c(nc3ccc(O)cc13)-c1cc3c(c(=O)n1C2)COC(=O)[C@]3(O)CC | 5.51% and 5.68% and 5.45% | 3.41% and 4.83% and 3.66% | 1.89% and 3.99% | 1.68% and 1.7% and 1.87% |  |  | > 8.50 | 29.6% and 21.7% and 23.7% | 13.3% and 10.5% and 14.2% |  |  |  |  |  |  |  |  |
| CCc1cc2c(N3CCc4c(cc(Cn5ccnc5)cc4-c4cn(C)nc4C(F)(F)F)C3=O)cc(C)nc2c(OC)n1 | 108% and 84.9% and 95.3% | 104% and 93.7% and 115% | 100% and 83.8% and 86.7% | 85.4% and 79.7% and 96.4% | 76.5% and 55.1% and 70.1% | 56.7% and 37.7% and 41.4% | < 5.00 and 5.35 and 5.15 |  |  |  |  |  |  |  |  |  |  |
| CCc1cc2c(N3CCc4c(cc(Cn5ccnc5)cc4-c4cn(C)nc4C(F)(F)F)C3=O)ccnc2c(OC)n1 | 108% and 98.5% and 105% | 109% (2×) and 102% | 98% and 85.5% and 106% | 100% and 93.7% and 73.7% | 92.4% and 69% and 64.4% | 63.6% and 50.2% and 39.2% | < 5.00 and 5.25 |  |  |  |  |  |  |  |  |  |  |
